The numbers were not newly measured in PMC4358366, “Identification of ‘erasers’ for lysine crotonylated histone marks using a chemical proteomics approach” (eLife, 2014), which cites them from elsewhere.

Common to all, as to settings: H3K9Cr peptide, residues 5–13; [32P]-NAD TLC; ref Feldman et al., 2013; cited from earlier work
One data set has as its system Sirt1. The source says:
(§1) Lysine crotonylation (Kcr) is a newly discovered histone PTM that is specifically enriched at active gene promoters and potential enhancers in mammalian cell genomes ([Tan et al., 2011]). […] However, further mechanistic and functional studies of histone Kcr have been limited by a lack of knowledge of the enzymes that catalyze the addition or removal of Kcr in cells. In a systematic screening of the activities of the ... || Siruins were initially recognized as NAD-dependent deacetylases ([Imai et al., 2000]; [Landry et al., 2000]; [Sauve et al., 2006]). […] In this study ...

In a further data set the test system is Sirt2.
From the text: as §1

The test system of a further data set is Sirt3. The source says:
Siruins were initially recognized as NAD-dependent deacetylases ([Imai et al., 2000]; [Landry et al., 2000]; [Sauve et al., 2006]). […] In this study ...

“Also recorded” adds a separate entry of the source. Where no end group is shown, it is not given here. The star is where a group is joined. Crotonyl(E) = C/C=C/C(=O)*

Take “histone H3K9Cr peptide: H3K9Cr peptide of Denu's study, residues 5–13 of histone H3 (QTARK(Crotonyl(E))STGG; UniProt P68431 6-14, looked up, fragment)”: in the data set with Sirt1, the “decrotonylase activity of Sirt1 (literature)” value is recorded as “exhibited decrotonylase activity; also recorded: can catalyze the removal of a crotonyl group”. The “decrotonylase activity of Sirt2 (literature)” value in the data set with Sirt2 is “exhibited decrotonylase activity; also recorded: can catalyze the removal of a crotonyl group”. Further, the “decrotonylase activity of Sirt3 (literature)” value with Sirt3 was “totally inactive”.
